Experiments:
D(4) dopamine receptor = molecular target: T1, D(4) dopamine receptor (Homo sapiens, UniProt P21917)
T1 sequence (P21917 whole entry): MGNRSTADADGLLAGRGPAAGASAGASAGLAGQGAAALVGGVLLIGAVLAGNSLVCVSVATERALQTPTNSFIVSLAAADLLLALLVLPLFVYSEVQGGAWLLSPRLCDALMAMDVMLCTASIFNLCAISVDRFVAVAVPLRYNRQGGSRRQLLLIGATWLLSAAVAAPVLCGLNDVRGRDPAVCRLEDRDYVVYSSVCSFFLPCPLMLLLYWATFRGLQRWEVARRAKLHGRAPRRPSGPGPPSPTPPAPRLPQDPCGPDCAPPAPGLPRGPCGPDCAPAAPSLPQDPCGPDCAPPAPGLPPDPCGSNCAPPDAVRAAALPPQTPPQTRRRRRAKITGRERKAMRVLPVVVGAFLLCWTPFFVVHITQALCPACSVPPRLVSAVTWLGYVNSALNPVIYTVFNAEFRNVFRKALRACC

[1] = molecular target: T2, Neuropeptide Y receptor type 2 (Homo sapiens, UniProt P49146)
T2 sequence (P49146 whole entry): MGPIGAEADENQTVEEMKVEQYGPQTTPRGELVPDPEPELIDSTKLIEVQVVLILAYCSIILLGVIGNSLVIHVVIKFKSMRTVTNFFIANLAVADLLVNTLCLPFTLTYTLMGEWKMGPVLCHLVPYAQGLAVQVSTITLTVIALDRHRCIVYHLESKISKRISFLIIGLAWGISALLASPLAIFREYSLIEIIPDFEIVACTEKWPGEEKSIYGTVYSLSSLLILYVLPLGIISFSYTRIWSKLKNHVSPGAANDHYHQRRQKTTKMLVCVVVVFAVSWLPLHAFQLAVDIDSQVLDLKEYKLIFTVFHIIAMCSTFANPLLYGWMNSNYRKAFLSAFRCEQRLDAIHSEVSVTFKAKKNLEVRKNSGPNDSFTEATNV

[2] = molecular target: Neurotensin receptor type 1 (Homo sapiens, UniProt P30989)
Chain of Neurotensin receptor type 1 (P30989 whole entry): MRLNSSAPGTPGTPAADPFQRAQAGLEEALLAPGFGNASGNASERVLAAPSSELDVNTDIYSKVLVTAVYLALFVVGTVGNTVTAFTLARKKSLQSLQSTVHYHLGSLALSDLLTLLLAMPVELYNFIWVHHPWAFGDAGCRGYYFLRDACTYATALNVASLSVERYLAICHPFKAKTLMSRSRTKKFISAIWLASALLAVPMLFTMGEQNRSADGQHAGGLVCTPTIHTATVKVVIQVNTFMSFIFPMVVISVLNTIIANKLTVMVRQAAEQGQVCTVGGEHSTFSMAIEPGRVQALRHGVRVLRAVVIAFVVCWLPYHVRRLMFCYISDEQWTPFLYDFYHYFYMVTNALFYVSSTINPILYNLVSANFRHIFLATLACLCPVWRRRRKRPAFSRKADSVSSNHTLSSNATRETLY

[3] = molecular target: T3, Alpha-1A adrenergic receptor (Homo sapiens, UniProt P35348)
T3 sequence (P35348 whole entry): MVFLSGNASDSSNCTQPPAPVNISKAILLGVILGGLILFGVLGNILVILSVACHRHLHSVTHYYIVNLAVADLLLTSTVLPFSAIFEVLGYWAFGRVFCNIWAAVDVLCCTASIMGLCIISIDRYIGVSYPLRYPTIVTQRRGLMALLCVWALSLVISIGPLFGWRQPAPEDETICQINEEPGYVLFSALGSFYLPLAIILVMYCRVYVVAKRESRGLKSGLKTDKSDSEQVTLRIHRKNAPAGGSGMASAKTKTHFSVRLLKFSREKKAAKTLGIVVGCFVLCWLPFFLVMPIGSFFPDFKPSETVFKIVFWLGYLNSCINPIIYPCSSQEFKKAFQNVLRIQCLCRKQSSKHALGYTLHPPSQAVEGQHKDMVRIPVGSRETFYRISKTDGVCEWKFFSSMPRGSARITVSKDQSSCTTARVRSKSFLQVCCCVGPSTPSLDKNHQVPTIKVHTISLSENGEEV

[4] = molecular target: T4, Peroxisome proliferator-activated receptor gamma (Homo sapiens, UniProt P37231); type: functional
T4 sequence (P37231 whole entry): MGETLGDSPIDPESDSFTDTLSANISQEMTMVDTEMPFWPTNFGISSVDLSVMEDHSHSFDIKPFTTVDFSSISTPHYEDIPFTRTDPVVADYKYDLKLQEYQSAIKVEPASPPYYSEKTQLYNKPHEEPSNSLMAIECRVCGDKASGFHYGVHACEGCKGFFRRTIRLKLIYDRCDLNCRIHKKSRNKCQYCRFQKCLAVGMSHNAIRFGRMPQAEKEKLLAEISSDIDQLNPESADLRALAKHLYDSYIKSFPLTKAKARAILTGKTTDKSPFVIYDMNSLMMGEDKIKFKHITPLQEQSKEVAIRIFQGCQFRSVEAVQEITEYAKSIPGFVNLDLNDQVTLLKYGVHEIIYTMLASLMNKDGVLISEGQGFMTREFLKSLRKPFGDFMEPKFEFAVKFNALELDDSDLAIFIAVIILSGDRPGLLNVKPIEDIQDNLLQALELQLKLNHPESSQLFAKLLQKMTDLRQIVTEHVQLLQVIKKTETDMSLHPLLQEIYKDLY

Histamine H1 receptor = Histamine H1 receptor (Homo sapiens, UniProt P35367); type: functional, cell-based
Chain of Histamine H1 receptor (P35367 whole entry): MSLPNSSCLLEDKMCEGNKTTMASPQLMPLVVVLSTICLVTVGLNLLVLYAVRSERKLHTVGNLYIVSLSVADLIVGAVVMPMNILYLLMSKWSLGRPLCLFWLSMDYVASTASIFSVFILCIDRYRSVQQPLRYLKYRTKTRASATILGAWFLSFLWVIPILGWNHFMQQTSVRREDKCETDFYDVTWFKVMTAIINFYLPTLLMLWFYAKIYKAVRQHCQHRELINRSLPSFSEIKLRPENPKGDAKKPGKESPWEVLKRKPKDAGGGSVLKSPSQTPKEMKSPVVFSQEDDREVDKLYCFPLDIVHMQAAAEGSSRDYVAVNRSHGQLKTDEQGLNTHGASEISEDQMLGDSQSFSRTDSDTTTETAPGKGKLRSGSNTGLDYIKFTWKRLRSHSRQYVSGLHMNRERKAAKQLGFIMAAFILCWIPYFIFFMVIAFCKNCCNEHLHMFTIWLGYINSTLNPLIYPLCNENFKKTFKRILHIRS

[5] = molecular target: Gamma-aminobutyric acid receptor subunit alpha-1/alpha-2/beta-2/gamma-2 (Homo sapiens, UniProt P14867+P18507+P47869+P47870); type: functional, cell-based
Chain of Gamma-aminobutyric acid receptor subunit alpha-1/alpha-2/beta-2/gamma-2 (P14867 whole entry): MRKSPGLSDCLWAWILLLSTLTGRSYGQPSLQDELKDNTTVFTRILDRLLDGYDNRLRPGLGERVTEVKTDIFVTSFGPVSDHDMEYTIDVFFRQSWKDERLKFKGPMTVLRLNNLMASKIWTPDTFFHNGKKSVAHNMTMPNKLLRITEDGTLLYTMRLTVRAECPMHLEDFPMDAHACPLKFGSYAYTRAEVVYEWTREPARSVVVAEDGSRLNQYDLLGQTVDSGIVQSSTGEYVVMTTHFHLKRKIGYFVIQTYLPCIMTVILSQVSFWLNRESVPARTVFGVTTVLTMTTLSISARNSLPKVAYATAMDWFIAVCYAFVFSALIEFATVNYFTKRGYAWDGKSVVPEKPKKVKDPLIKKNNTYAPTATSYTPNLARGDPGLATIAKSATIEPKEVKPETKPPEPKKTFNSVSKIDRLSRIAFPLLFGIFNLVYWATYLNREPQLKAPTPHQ
Chain of Gamma-aminobutyric acid receptor subunit alpha-1/alpha-2/beta-2/gamma-2 (P47870 whole entry): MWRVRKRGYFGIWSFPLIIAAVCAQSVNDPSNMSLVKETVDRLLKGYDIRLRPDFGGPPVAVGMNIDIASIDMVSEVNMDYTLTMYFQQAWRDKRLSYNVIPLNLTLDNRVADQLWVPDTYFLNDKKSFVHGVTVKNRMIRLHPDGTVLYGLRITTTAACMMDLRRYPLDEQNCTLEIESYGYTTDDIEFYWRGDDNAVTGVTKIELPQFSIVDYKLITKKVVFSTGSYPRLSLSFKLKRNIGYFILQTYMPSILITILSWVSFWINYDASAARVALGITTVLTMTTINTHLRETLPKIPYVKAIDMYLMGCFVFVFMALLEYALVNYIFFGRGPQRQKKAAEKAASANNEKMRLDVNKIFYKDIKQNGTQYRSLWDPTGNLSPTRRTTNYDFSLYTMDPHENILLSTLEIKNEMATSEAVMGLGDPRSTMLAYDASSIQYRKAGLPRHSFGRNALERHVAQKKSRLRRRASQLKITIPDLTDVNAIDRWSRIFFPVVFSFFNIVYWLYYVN
Chain of Gamma-aminobutyric acid receptor subunit alpha-1/alpha-2/beta-2/gamma-2 (P18507 whole entry): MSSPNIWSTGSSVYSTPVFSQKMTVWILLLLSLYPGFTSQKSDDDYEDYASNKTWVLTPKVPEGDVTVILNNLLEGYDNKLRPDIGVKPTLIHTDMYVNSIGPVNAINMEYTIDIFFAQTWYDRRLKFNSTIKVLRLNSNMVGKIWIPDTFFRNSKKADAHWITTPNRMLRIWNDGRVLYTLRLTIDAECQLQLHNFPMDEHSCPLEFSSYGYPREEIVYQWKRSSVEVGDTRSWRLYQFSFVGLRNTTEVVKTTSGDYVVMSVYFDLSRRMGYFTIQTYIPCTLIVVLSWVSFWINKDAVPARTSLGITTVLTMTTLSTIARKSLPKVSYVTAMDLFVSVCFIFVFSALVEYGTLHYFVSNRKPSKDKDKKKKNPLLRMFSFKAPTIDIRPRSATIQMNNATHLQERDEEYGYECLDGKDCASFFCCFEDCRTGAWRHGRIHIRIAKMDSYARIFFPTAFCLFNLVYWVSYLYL
Chain of Gamma-aminobutyric acid receptor subunit alpha-1/alpha-2/beta-2/gamma-2 (P47869 whole entry): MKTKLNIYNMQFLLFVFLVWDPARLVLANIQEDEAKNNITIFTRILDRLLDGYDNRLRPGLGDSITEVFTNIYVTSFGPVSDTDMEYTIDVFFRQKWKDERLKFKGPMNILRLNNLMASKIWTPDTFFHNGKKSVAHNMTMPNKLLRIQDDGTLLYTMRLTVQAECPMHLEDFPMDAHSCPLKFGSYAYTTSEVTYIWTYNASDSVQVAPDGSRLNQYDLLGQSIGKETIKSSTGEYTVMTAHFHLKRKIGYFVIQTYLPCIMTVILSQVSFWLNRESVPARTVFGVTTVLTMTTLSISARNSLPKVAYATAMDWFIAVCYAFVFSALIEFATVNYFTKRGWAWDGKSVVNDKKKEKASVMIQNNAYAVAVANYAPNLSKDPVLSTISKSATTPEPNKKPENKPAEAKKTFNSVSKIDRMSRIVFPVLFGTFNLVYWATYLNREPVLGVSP

[6] = molecular target: Beta-3 adrenergic receptor (Homo sapiens, UniProt P13945)
Chain of Beta-3 adrenergic receptor (P13945 whole entry): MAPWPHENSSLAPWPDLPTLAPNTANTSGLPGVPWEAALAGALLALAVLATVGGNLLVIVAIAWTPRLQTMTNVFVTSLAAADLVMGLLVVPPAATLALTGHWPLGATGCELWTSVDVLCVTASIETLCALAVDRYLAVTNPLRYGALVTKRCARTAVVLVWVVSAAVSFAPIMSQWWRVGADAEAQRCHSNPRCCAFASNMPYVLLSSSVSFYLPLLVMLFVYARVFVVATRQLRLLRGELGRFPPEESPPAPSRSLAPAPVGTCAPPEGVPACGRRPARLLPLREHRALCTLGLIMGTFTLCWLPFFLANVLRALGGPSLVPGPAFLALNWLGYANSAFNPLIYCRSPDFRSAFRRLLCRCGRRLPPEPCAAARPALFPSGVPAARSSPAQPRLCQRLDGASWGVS

[7] = molecular target: T5, Corticotropin-releasing factor receptor 1 (Homo sapiens, UniProt P34998)
T5 sequence (P34998 whole entry): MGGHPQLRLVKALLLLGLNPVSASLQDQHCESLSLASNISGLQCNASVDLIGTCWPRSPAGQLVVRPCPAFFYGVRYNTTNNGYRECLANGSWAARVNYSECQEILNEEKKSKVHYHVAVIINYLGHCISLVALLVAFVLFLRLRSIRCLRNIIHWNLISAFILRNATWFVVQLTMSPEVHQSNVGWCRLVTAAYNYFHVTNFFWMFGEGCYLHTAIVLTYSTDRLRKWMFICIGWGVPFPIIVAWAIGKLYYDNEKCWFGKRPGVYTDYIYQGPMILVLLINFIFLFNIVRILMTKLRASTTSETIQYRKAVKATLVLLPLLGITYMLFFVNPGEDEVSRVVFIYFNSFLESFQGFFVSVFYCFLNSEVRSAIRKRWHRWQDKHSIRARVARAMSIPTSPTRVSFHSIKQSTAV

[8] = molecular target: T6, Corticotropin-releasing factor receptor 2 (Homo sapiens, UniProt Q13324)
T6 sequence (Q13324 whole entry): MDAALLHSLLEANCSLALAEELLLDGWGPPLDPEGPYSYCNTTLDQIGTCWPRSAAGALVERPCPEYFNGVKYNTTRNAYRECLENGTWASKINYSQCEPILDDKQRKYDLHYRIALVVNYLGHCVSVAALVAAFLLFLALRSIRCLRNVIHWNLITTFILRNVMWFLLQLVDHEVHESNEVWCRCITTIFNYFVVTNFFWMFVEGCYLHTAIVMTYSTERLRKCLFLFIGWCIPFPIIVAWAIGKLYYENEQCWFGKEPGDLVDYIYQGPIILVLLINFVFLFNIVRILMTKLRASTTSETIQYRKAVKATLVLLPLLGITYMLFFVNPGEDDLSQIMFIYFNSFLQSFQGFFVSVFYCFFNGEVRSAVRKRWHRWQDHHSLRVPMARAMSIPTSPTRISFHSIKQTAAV

Glucagon receptor = Glucagon receptor (Homo sapiens, UniProt P47871)
Chain of Glucagon receptor (P47871 whole entry): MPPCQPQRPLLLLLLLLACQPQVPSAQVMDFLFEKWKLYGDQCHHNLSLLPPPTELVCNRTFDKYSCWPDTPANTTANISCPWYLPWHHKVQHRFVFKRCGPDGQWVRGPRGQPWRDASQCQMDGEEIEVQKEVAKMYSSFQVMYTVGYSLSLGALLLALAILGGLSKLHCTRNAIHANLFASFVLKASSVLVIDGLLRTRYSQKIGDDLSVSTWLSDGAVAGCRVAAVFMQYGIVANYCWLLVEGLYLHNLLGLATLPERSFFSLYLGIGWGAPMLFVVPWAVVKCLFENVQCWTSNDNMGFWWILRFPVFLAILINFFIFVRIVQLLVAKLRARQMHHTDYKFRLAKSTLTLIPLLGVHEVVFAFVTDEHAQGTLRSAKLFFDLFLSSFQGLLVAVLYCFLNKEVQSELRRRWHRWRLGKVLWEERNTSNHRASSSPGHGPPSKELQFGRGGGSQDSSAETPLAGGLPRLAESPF
Further: assay procedure not described here.

SMILES | AC50 (D(4) dopamine receptor) | AC50 [1] | AC50 [2] | AC50 [3] | AC50 [4] | AC50 (Histamine H1 receptor) | AC50 [5] | AC50 [6] | AC50 [7] | AC50 [8] | AC50 (Glucagon receptor)
N#Cc1ccc([C@H]2CCc3cncn32)c(F)c1 [OSILODROSTAT] | > 10 µM | > 10 µM | > 10 µM | > 10 µM |  |  |  |  |  |  | 
CO/N=C(\C(=O)N[C@@H]1C(=O)N2C(C(=O)O)=C(CSc3nnnn3C)CS[C@H]12)c1csc(N)n1 [CEFMENOXIME] |  |  |  |  | > 30 µM |  |  |  |  |  | 
CC[C@@H]1C(=O)OC[C@@H]1Cc1cncn1C [PILOCARPINE] |  |  |  |  |  | > 30 µM |  |  |  |  | 
CC(=O)O[C@H]1CC[C@@]2(C)C(=CC[C@@H]3[C@@H]2CC[C@]2(C)C(c4cccnc4)=CC[C@@H]32)C1 [ABIRATERONE ACETATE] |  |  |  |  | > 30 µM |  |  |  |  |  | 
C/C(O)=C(\C#N)C(=O)Nc1ccc(C(F)(F)F)cc1 [TERIFLUNOMIDE] |  |  |  |  | > 30 µM |  | > 30 µM |  |  |  | 
CCCCc1ncc(/C=C(\Cc2cccs2)C(=O)O)n1Cc1ccc(C(=O)O)cc1 [EPROSARTAN] | > 10 µM | > 30 µM | > 30 µM | > 10 µM |  | > 30 µM |  | > 30 µM | > 30 µM | > 30 µM | > 30 µM
CCN1CCN(C(=O)N[C@@H](C(=O)N[C@@H]2C(=O)N3C(C(=O)O)=C(CSc4nnnn4C)CS[C@H]23)c2ccc(O)cc2)C(=O)C1=O [CEFOPERAZONE] |  |  |  |  | > 30 µM |  | > 30 µM |  |  |  | 
CN1C(=O)C(O)N=C(c2ccccc2)c2cc(Cl)ccc21 (configuration not stated) [TEMAZEPAM] | > 10 µM | > 30 µM | > 30 µM | > 10 µM |  |  |  | > 30 µM | > 30 µM | > 30 µM | > 30 µM
CCc1c(Cl)c(O)c(Cl)c(O)c1C(=O)O[C@H]1[C@H](O)[C@H](OC)[C@H](OC/C2=C\C=C\C[C@H](O)/C(C)=C/[C@H](CC)[C@@H](O[C@@H]3OC(C)(C)[C@@H](OC(=O)C(C)C)[C@H](O)[C@@H]3O)/C(C)=C/C(C)=C/C[C@@H]([C@@H](C)O)OC2=O)O[C@@H]1C [FIDAXOMICIN] | > 10 µM | > 30 µM | > 30 µM | > 10 µM |  |  |  | > 30 µM | > 30 µM | > 30 µM | > 30 µM
CCC1(CC)C(=O)NCC(C)C1=O (configuration not stated) [METHYPRYLON] |  |  |  |  | > 30 µM | > 30 µM | > 30 µM |  |  |  | 
CCN(CC)C(=O)N[C@H]1C[C@@H]2c3cccc4[nH]cc(c34)C[C@H]2N(C)C1 [TERGURIDE] |  |  |  |  | > 30 µM | 7.49 µM | > 30 µM |  |  |  | 
NCC(=O)CCC(=O)O [AMINOLEVULINIC ACID] |  |  |  |  |  | > 30 µM | > 30 µM |  |  |  | 
CC(C)OC(=O)CCC/C=C\C[C@@H]1[C@@H](CC[C@@H](O)CCc2ccccc2)[C@H](O)C[C@@H]1O [LATANOPROST] |  |  |  |  | > 30 µM | > 30 µM | > 30 µM |  |  |  | 
CC(C)(C)c1cc(C(C)(C)C)c(NC(=O)c2c[nH]c3ccccc3c2=O)cc1O [IVACAFTOR] |  |  |  |  |  |  |  | 4.4 µM |  |  | 
COc1ccc2c3c1O[C@H]1[C@@H](O)C=C[C@H]4[C@@H](C2)N(C)CC[C@@]341 [CODEINE] | > 10 µM | > 30 µM | > 30 µM | > 10 µM |  |  |  | > 30 µM | > 30 µM | > 30 µM | > 30 µM
CNS(=O)(=O)Cc1ccc2[nH]cc(CCN(C)C)c2c1 | > 10 µM | > 30 µM | > 30 µM | > 10 µM |  |  | > 30 µM | > 30 µM | > 30 µM | > 30 µM | > 30 µM
O=C(NCCNCC(O)COc1ccc(O)cc1)N1CCOCC1 (configuration not stated) [XAMOTEROL] |  |  |  |  |  | > 30 µM | > 30 µM |  |  |  | 
CN1CCC(=C2c3ccccc3CCc3sccc32)CC1 [PIZOTYLINE] |  |  |  |  |  | 0.0681 µM | > 30 µM |  |  |  | 
CCCc1nc(C(C)(C)O)c(C(=O)OCc2oc(=O)oc2C)n1Cc1ccc(-c2ccccc2-c2nnn[nH]2)cc1 [OLMESARTAN MEDOXOMIL] | > 10 µM | > 50 µM | > 30 µM | > 10 µM |  |  |  | > 30 µM | > 30 µM | > 30 µM | > 50 µM
CN1CCN(CC/C=C2/c3ccccc3Sc3ccc(S(=O)(=O)N(C)C)cc32)CC1 [THIOTHIXENE] | 0.78 µM | > 30 µM | > 30 µM | 0.0624 µM |  |  |  | > 30 µM | > 30 µM | > 30 µM | > 30 µM
CCCN(CCC)C(=O)C(CCC(=O)O)NC(=O)c1ccccc1 (configuration not stated) [PROGLUMIDE] | > 10 µM | > 30 µM | > 30 µM |  |  |  |  | > 30 µM | > 30 µM | > 30 µM | > 30 µM

— ChEMBL document CHEMBL5291721, “A preclinical secondary pharmacology resource illuminates target-adverse drug reaction associations of marketed drugs” (Nat Commun, 2023)
